Patent US6670446B1, “N1 modified glycopeptides” (Eli Lilly and Company, priority 1998, dated 2003)

Experiments:
Format in all cases: cell-based
[1] = system: Sensitive Enterococcus faecium and faecalis; assay: MIC, standard broth micro-dilution assay, Sensitive; conditions: geometric mean of 4-6 isolates
Procedure: (§1) The antibacterial efficacy of the present compounds is illustrated by Table III. The minimal inhibitory concentrations (MICs) were determined using a standard broth micro-dilution assay.

[2] = system: Enterococcus faecium 180-1; assay: MIC, standard broth micro-dilution assay, EF 180-1
Procedure: as §1

[3] = system: Staphylococcus epidermidis 270; assay: MIC, standard broth micro-dilution assay, SE 270
Procedure: as §1

[4] = system: Staphylococcus aureus SA1199; assay: MIC, standard broth micro-dilution assay, SA 1199
Procedure: as §1

[5] = system: Staphylococcus aureus X778; assay: MIC, standard broth micro-dilution assay, SA X778
Procedure: as §1

[6] = system: Enterococcus faecalis 2041; assay: MIC, standard broth micro-dilution assay, EF 2041
Procedure: as §1

[7] = system: Staphylococcus aureus 446; assay: MIC, standard broth micro-dilution assay, SA 446
Procedure: as §1

[8] = system: Staphylococcus haemolyticus 415; assay: MIC, standard broth micro-dilution assay, SH 415
Procedure: as §1

[9] = system: Haemophilus influenzae RD; assay: MIC, standard broth micro-dilution assay, HFRD
Procedure: as §1

[10] = system: Staphylococcus haemolyticus 105; assay: MIC, standard broth micro-dilution assay, SH 105
Procedure: as §1

[11] = system: Staphylococcus aureus 489; assay: MIC, standard broth micro-dilution assay, SA 489
Procedure: as §1

[12] = system: Staphylococcus aureus 491; assay: MIC, standard broth micro-dilution assay, SA 491
Procedure: as §1

[13] = system: Enterococcus faecalis 276; assay: MIC, standard broth micro-dilution assay, EF 276
Procedure: as §1

[14] = system: Staphylococcus aureus SA1199A; assay: MIC, standard broth micro-dilution assay, SA 1199A
Procedure: as §1

Enterococcus faecium 180 = assay: MIC, standard broth micro-dilution assay, EF 180
Procedure: as §1

[15] = system: Staphylococcus aureus S13E
Procedure: as §1

Escherichia coli EC14 = assay: MIC, standard broth micro-dilution assay, EC 14
Procedure: as §1

[16] = system: Staphylococcus aureus X400; assay: MIC, standard broth micro-dilution assay, SA X400
Procedure: as §1

[17] = system: Enterococcus gallinarum 245; assay: MIC, standard broth micro-dilution assay, EG 245
Procedure: as §1

[18] = system: Resistant Enterococcus faecium and faecalis; assay: MIC, standard broth micro-dilution assay, Resistant; conditions: geometric mean of 4-6 isolates
Procedure: as §1

[19] = system: Staphylococcus aureus 447; assay: MIC, standard broth micro-dilution assay, SA 447
Procedure: as §1

CC1OC(OC2c3ccc(c(Cl)c3)Oc3cc4cc(c3OC3OC(CO)C(O)C(O)C3OC3CC(C)(NCc5ccc(-c6ccccc6)cc5)C(O)C(C)O3)Oc3ccc(cc3Cl)C(O)C(NC(=O)C(CCCCNC(=O)OC(C)(C)C)NC(=O)OC(C)(C)C)C(=O)NC(CC(N)=O)C(=O)NC4C(=O)NC3C(=O)NC2C(=O)NC(C(=O)O)c2cc(O)cc(O)c2-c2cc3ccc2O)CC(C)(N)C1O [Example 30, N^1-(N,N′-DIBOC-L-lysine) derivative of N^DISACC-(p-phenylbenzyl)desleucylA82846B]
minimal inhibitory concentration (MIC), Sensitive [1]: 2.3 | minimal inhibitory concentration (MIC), EF 180-1 [2]: 0.5 | minimal inhibitory concentration (MIC), SE 270 [3]: 1 | minimal inhibitory concentration (MIC), SA 1199 [4]: 2 | minimal inhibitory concentration (MIC), SA X778 [5]: 1 | minimal inhibitory concentration (MIC), EF 2041 [6]: 1 | minimal inhibitory concentration (MIC), SA 446 [7]: 8 | minimal inhibitory concentration (MIC), SH 415 [8]: 2 | minimal inhibitory concentration (MIC), HFRD [9]: >64 | minimal inhibitory concentration (MIC), SH 105 [10]: 2 | minimal inhibitory concentration (MIC), SA 489 [11]: 1 | minimal inhibitory concentration (MIC), SA 491 [12]: 2 | minimal inhibitory concentration (MIC), EF 276 [13]: 2 | minimal inhibitory concentration (MIC), SA 1199A [14]: 1 | minimal inhibitory concentration (MIC), EF 180 (Enterococcus faecium 180): 8 | minimal inhibitory concentration (MIC), SA S13E [15]: 2 | minimal inhibitory concentration (MIC), EC 14 (Escherichia coli EC14): >64 | minimal inhibitory concentration (MIC), SA X400 [16]: 2 | minimal inhibitory concentration (MIC), EG 245 [17]: 2 | minimal inhibitory concentration (MIC), Resistant [18]: 38 | minimal inhibitory concentration (MIC), SA 447 [19]: 2
